Measurements as given in patent publication US9440967B2, “1H-pyrrolo [2, 3 -B] pyridine derivatives and their use as radical quenchers” (Arizona Board of Regents on Behalf of Arizona State …, priority 2012, dated 2016).
Structures can show the parent of a compound that is named as a salt.

What was measured:
Format in all cases: cell-based, Human
[1] = system: CEM cells; assay: Reactive oxygen species (ROS) assay, DCFH-DA flow cytometry, glutathione depleted with diethyl maleate; conditions: CEM cells pretreated 16 h with 1, 2.5 and 5 μM compound, then 5 mM DEM 50 min, FIG. 1; for protection against ROS production (DCF fluorescence): compared with α-tocopherol
Experimental: FIG. 1. Representative flow cytometric histograms overlay showing ROS production in CEM cells. Following pretreatment with the indicated compounds (1, 2.5 and 5 μM) for 16 h, the cells were treated with 5 mM diethyl maleate (DEM) for 50 min to deplete glutathione. The cells were washed in phosphate-buffered saline, and suspended in phosphate-buffered saline containing 20 mM glucose. Cells were loaded with 10 μM dichlorodihydrofluoresceindiacetate (DCFH-DA) for 20 min, and the green fluorescence (DCF) was measured by flow cytometry using the FL1-H channel. […] A total of 10000 events were recorded for each sample and analyzed with the CellQuest software (BD Biosciences). Increased DCF fluorescence, a measure of intracellular oxidation and ROS production, was determined by a shift in DCF fluorescence to the right on the x-axis of the FACS histogram. […] Data are expressed as the mean±SEM (n=3). α-TOH is α-tocopherol.
Cellular ROS production can be monitored using 2′,7′-dichlorodihydrofluorescein diacetate (DCFH-DA) (LeBel et al. (1992) Chem. Res. Toxicol. 5, 227-231) (Molecular Probes, Eugene, Oreg., USA), a membrane permeable and oxidant-sensitive fluorescent dye. DCFH-DA is a non-fluorescent derivative of fluorescein that emits fluorescence after being oxidized by hydrogen peroxide and other ROS. The emitted fluorescence is directly proportional to the concentration of hydrogen peroxide. DCFH-DA is nonionic and nonpolar and is easily taken up by cells. Once inside the cell, DCFH-DA is hydrolyzed by cellular esterases to non-fluorescent DCFH which traps the dye in the cell. In the presence of ROS including hydrogen peroxide, DCFH is oxidized to the highly fluorescent compound dichlorofluorescein (DCF). The intracellular DCF fluorescence is used as an index of cellular ROS production.
Cellular oxidative stress was induced by pharmacological depletion of glutathione (GSH) using the chemical diethylmaleate (DEM). ROS production was assessed by monitoring DCF fluorescence. Leukemic CEM cells (ATCC®, catalogue number CRL-2264) were cultured in RPMI (GIBCO, Grand island, NY, USA) with 10% FCS, 2 mM glutamine (HyClone, South Logan, Utah, USA) and 1% penicillin-streptomycin mix antibiotics (Cellgro, Manassas, Va., USA) supplements. CEM cells (5×10^5 cell/mL) were plated (1 mL) in 24-well plate and treated with the invention compounds (final concentration 1, 2.5, and 5 μM), and incubated at 37° C., 5% CO2 for 16 hours. The compounds tested were prepared by first making stock solutions (2.5 mM) in dimethylsulfoxide (DMSO). Cells were treated with 5 mM DEM for 50 minutes and collected by centrifugation at 300×g for 3 min and then washed twice with Hanks' Balanced Salt Solution (HSSB) buffer (Sigma, St. Louis, Mo. USA). Cells were re-suspended in HSSB buffer+20 mM glucose and incubated at 37° C. in the dark for 20 min with 10 μM DCFH-DA. Cells were collected by centrifugation at 300×g for 3 min and then washed twice with HSSB buffer. The samples were analyzed immediately by flow cytometry (Becton-Dickinson FACS Caliber), (Cell Quest software, BD Biosciences) using 488 nm excitation laser and FL1-H channel 538 nm emission filter. In each analysis, 10,000 events were recorded after cell debris were electronically gated out. Results obtained were verified by repeating experiments N=3 independent experiments. Authentic hydrogen peroxide was used as a positive control.

[2] = system: CEM leukemia cells; assay: Mitochondrial membrane potential (Δψm) assay, TMRM staining (FACS); conditions: CEM cells pretreated 16 h, then 5 mM DEM 120 min, 250 nM TMRM; FIG. 3 and 4
Experimental: FIG. 3. Representative flow cytometric two-dimensional color density dot plot analyses of mitochondrial membrane potential (ΔΨm) in leukemia CEM cells stained with 250 nM TMRM and analyzed using FL2-H channel as described in the experimental section. The percentage of cells with intact ΔΨm is indicated in the top right quadrant of captions. Representative example from at least three independent experiments. A total of 10000 events were recorded for each sample and analyzed with the CellQuest software (BD Biosciences).
FIG. 4. A bar graph representation of means the percentage of cells with intact ΔΨm recorded by FACS. Data are expressed as means±SEM of three independent experiments run in duplicate.
Measurement of Mitochondrial Membrane Potential (Δψm) (FACS). For the determination of Δψm, CEM leukemia cells were pre-treated with or without the test compounds for 16 h. The cells were treated with 5 mM DEM for 120 minutes, collected by centrifugation at 300×g for 3 minutes and then washed twice with phosphate buffered saline. The cells were re-suspended in HSSB buffer and incubated at 37° C. in the dark for 15 minutes with 250 nM TMRM (a cationic dye which accumulates within mitochondria in accordance with the Δψm Nernst potential). Cells were collected by centrifugation at 300×g for 3 minutes and then washed twice with phosphate buffered saline. The samples were analyzed immediately by flow cytometry using 488 nm excitation laser and the FL2-H channel. The results obtained were verified in three independent experiments. The protonophore FCCP (10 μM) was used to dissipate the chemiosmotic proton gradient […] and served as a control for loss of Δψm. […] The results were verified by repeating the experiments in duplicate.

[3] = system: CEM cells; assay: Trypan blue cell viability assay of DEM-treated cells; conditions: CEM cells pretreated 16 h, then 5 mM DEM 5.5 h; FIG. 5
Experimental: FIG. 5. Trypan blue exclusion assay of CEM cells treated with test compounds for 16 h before exposure to 5 mM diethyl maleate for 5.5 h. At the time of assay, >80% of the DEM-treated cells were trypan blue positive, whereas in the non-DEM treated control, >95% of the cells were viable. Cell viability was expressed as the percentage of control. Results are an average of three independents trials. α-TOH is α-tocopherol.
Cell viability determined by trypan blue exclusion assay: This technique was used to assess the cytoprotective effects of the invention compounds in cultured cells pharmacologically treated to induce cell death by GSH depletion. DEM was used to deplete cellular GSH and induce oxidative stress. The viability of DEM-treated CEM cells was determined by their ability to exclude the dye trypan blue. Viable cells exclude trypan blue; whereas, non-viable cells take up the dye and stain blue. Briefly, CEM lymphoblasts (CCL-119) were grown in RPMI 1640 medium (GIBCO, Grand island, NY, USA) supplemented with 10% fetal calf serum, 2 mM glutamine (HyClone, South Logan, Utah, USA), 1% penicillin-streptomycin mix (Cellgro, Manassas, Va., USA). Cells were seeded at a density of 5×10^5 cells/mL and treated with different concentrations of the invention compounds. Cells were incubated at 37° C. in a humidified atmosphere of 5% CO2 in air for 16 hours. After pre-incubation, the cells were treated with 5 mM DEM for 5.5 h. Cell viability was determined by staining cells with 0.4% trypan blue using a hemacytometer. At least 500 cells were counted for each experimental group. At the time of assay, >80% of DEM-treated cells were trypan blue positive; whereas, in non-DEM treated control cell cultures>95% cells were viable. Cell viability was expressed as the percentage of control. Data are expressed as means±S.E.M (n=3).

SMILES: CCCCCCCCCCc1nc2c(c(C)c1O)CCN2C [Compound 1b, 1,4-Dimethyl-6-decyl-2,3-dihydro-1H-pyrrolo[2,3-b]pyridin-5-ol trifluoro acetic acid salt]
- intensity of DCF fluorescence [1]: significant decrease in the intensity of DCF fluorescence in a dose-dependent manner
- protection against ROS production (DCF fluorescence) [1]: significantly better protection than α-tocopherol
- prevention of loss of Δψm (mitochondrial depolarization) [2]: the most effective in preventing mitochondrial depolarization
- cytoprotection (cell viability, trypan blue exclusion) [3]: more effective in cytoprotection than was α-TOH

SMILES: CCCCCCCCCCc1nc2c(c(C)c1OC(C)=O)CCN2C [Compound 2b, 1,4-Dimethyl-6-decyl-2,3-dihydro-1H-pyrrolo[2,3-b]pyridin-5-yl acetate]
- intensity of DCF fluorescence [1]: significant decrease in the intensity of DCF fluorescence in a dose-dependent manner
- protection against ROS production (DCF fluorescence) [1]: significantly better protection than α-tocopherol
- prevention of loss of Δψm (mitochondrial depolarization) [2]: the most effective in preventing mitochondrial depolarization
- cytoprotection (cell viability, trypan blue exclusion) [3]: more effective in cytoprotection than was α-TOH
